Measured values from US9359311B2, “Substituted aromatic oligomers” (NEUROSCIOS GMBH, priority 2011, dated 2016).
“Also recorded” adds a separate entry of the source.

Columns and labels:
Format in all cases: in vivo, mouse
[1] = molecular target: T1, Human Aβ38, Aβ40 and Aβ42 (Homo sapiens, UniProt P05067); experiment: Human Aβ38, Aβ40 and Aβ42 in SDS brain homogenate fraction of hAPPSL Tg mice after 90 days treatment; details: twice daily i.p., p-FTAA 1 or 10 mg/kg/day, P9707_003 10 mg/kg/day
T1 construct: from tissue; host or cells: CSF and left brain hemisphere (SDS fraction) of transgenic hAPPSL mice
Protocol: (§1) Vehicle: Phosphate Buffered Saline (PBS; 6.7 mM PO4, 155 mM NaCl, pH=7.3-7.5) (BioWhittaker PBS from Lonza).
(§2) Test item (T.I.): p-FTAA and P9707_003 diluted in vehicle from stock solution in deionized water (10 mg/ml).
(§3) Tg hAPPSL: Transgenic hAPPSL mice over-expressing hAPP(751) under the control of the murine Thy-1 promoter with a C57BL/6xDBA background.
(§4) Human Aβ38, Aβ40 and Aβ42 were determined in homogenates of the left brain hemispheres and in CSF samples of all Tg animals by an immunosorbent assay from Mesoscale Discovery
48 hAPP Tg mice plus 4 reserves allocated to 4 different treatment groups were treated with either vehicle only (control), p-FTAA or P9707_003. As an additional control, 12 nTg littermates of the hAPPSL mice (plus 1 reserve) were treated with vehicle only. Starting at 6.5 months of age, female hAPPSL mice were treated with vehicle only, p-FTAA (dosage: 1 or 10 mg/kg/day) or P9707_003 (dosage: 10 mg/kg/day) for 90 days. […]
(§5) In the brain homogenate SDS fraction and in CSF of each Tg mouse, human Aβ38, Aβ40 and Aβ42 levels were measured with a Aβ-kit from Mesoscale Discovery. Aβ levels were evaluated in comparison to a peptide standard as pg/mg brain (wet weight) or pg/ml CSF.
Descriptive statistical analysis was performed on all evaluated parameters. […] Group differences between all Tg groups were calculated by a parametric ANOVA followed by a Bonferroni post test.

[2] = molecular target: T1, Human Aβ38, Aβ40 and Aβ42; experiment: Human Aβ38, Aβ40 and Aβ42 in CSF of hAPPSL Tg mice after 90 days treatment (immunosorbent assay); details: twice daily i.p.
Protocol: as §1, §2, §3, §4
(§6) 48 hAPP Tg mice plus 4 reserves allocated to 4 different treatment groups were treated with either vehicle only (control), p-FTAA or P9707_003. As an additional control, 12 nTg littermates of the hAPPSL mice (plus 1 reserve) were treated with vehicle only. Starting at 6.5 months of age, female hAPPSL mice were treated with vehicle only, p-FTAA (dosage: 1 or 10 mg/kg/day) or P9707_003 (dosage: 10 mg/kg/day) for 90 days. The Test Items (T.I.s) were administered in Vehicle. Compound and vehicle were administered twice daily i.p. for 90 days. Tg hAPPSL mice with a C57BL/6xDBA background and corresponding nTg littermates at an age of 6.5 months (±2 weeks) were randomly assigned to the treatment groups.
as §5
Descriptive statistical analysis was performed on all evaluated parameters. All data were represented as mean±standard error of mean (SEM). Grubb's test was used to detect outliers. Normality distribution of the values was tested with Kolmogorov Smirnov normality distribution test. Group differences between all Tg groups were calculated by a parametric ANOVA followed by a Bonferroni post test.

[3] = test system: amyloid depositions (plaques); experiment: Plaque number and plaque area in hAPPSL Tg mice (ThioflavinS staining); details: twice daily i.p., 90 days, vs vehicle
Protocol: as §1
Test Item (T.I.): p-FTAA and P9707_003, diluted in vehicle from stock solution in deionized water (10 mg/ml).
as §3
as §6, with “(+2” for “(±2”, “groups. […]” for “groups.”
Plaque load was quantified by staining with ThioflavinS staining of beta-sheet structures in a double incubation.
For determination of amyloid depositions 5 slices (1 from each level) per brain were stained and screened. Region areas (hippocampus and cortex) were measured and plaque surface area, number of plaques and mean size of objects within each region were quantified separately using automated image analysis software (Image Pro Plus, version 6.2).
Mosaic images for plaque load quantification including the whole cortex and hippocampus were recorded on a Zeiss AxioImager.Z1 microscope using high aperture lenses and an AxioVision 4.8 software driven AxioCam MRm (10× lens, 1× optocoupler). Plaques for AT180 quantifcation were imaged with a 20× lens. […]
Descriptive statistical analysis was performed on all evaluated parameters, Kolmogorov Smirnov test were performed to test normal distribution of data. […]

[4] = P9707_003 10 mg/kg/day, p-FTAA 1 or 10 mg/kg/day

T1 sequence (P05067 672-713 limits assumed): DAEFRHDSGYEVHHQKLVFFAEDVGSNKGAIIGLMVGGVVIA

Mean Aβ levels in CSF, relative to vehicle control (PBS control) ([2]; 10 mg/kg/day, female hAPPSL Tg mice, Aβ38, Aβ40, Aβ42, % of vehicle control): about 60%
CSF Aβ levels ([2]; hAPPSL Tg mice, p-FTAA 1 or 10 mg/kg/day, P9707_003 10 mg/kg/day): decreased
Compound: O=C(O)Cc1ccsc1-c1ccc(-c2sc(-c3ccc(-c4cc(CC(=O)O)c(-c5ccc(-c6sccc6CC(=O)O)s5)s4)s3)cc2CC(=O)O)s1 [Example 1, 2-(2-{5-[3-(Carboxymethyl)-5-{5-[4-(carboxymethyl)-5-{5-[3-(carboxymethyl)thiophen-2-yl]thiophen-2-yl}thiophen-2-yl]thiophen-2-yl}thiophen-2-yl]thiophen-2-yl}thiophen-3-yl)acetic acid]
aggregated Aβ38, Aβ40 and Aβ42 in SDS fraction of brain homogenate [1]: significant decrease; also recorded: reduced
reduction of plaque number in the hippocampus ([3]; 10 mg/kg/day, ThioflavinS): 54%
hippocampal plaque area percentage (ThioflavinS) [3, 4]: significantly lower plaque load; also recorded: reduced
number of ThioflavinS positive objects (plaque number) in the hippocampus [3, 4]: reduced object number; also recorded: highly significant reduced
